According to PubChem BioAssay AID248 (DTP/NCI, 2004):
Values joined by “and” are separate entries in the source; they are usually repeats but may differ in a detail not shown here. Equal values may be shown once. Toxic doses and inconclusive results are not listed. Rule as the data show it: active = T/C of 150% or more; inactive = T/C below 125%.

Tested on: L1210 leukemia ip in BDF1 mice, survival T/C
Experiment: NCI In Vivo Anticancer Drug Screen. Data for tumor model L1210 Leukemia (intraperitoneal) in B6D2F1 (BDF1) mice
Conditions: endpoint: mean survival time, higher = longer survival
Method in brief: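 Value reflects the ratio of survival in compound-treated mice to survival in vehicle-treated controls, with both groups carrying the same transplanted tumor.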

[1] = dose: 25.0 mg/kg/injection, schedule: Q01DX009 (ip), vehicle: saline with Tween-80
[2] = dose: 50.0 mg/kg/injection, schedule: Q01DX009 (ip), vehicle: saline with Tween-80
[3] = dose: 100.0 mg/kg/injection, schedule: Q01DX009 (ip), vehicle: saline with Tween-80
[4] = dose: 100.0 mg/kg/injection, schedule: Q04DX003 (ip), vehicle: saline with Tween-80
[5] = dose: 200.0 mg/kg/injection, schedule: Q01DX009 (ip), vehicle: saline with Tween-80
[6] = dose: 100.0 mg/kg/injection, schedule: Q01DX001 (ip), vehicle: saline
[7] = dose: 200.0 mg/kg/injection, schedule: Q01DX001 (ip), vehicle: saline
[8] = dose: 400.0 mg/kg/injection, schedule: Q01DX001 (ip), vehicle: saline
[9] = dose: 100.0 mg/kg/injection, schedule: Q04DX003 (ip), vehicle: saline
[10] = dose: 200.0 mg/kg/injection, schedule: Q04DX003 (ip), vehicle: saline
[11] = dose: 100.0 mg/kg/injection, schedule: Q01DX009 (ip), vehicle: saline
[12] = dose: 200.0 mg/kg/injection, schedule: Q01DX009 (ip), vehicle: saline
[13] = dose: 400.0 mg/kg/injection, schedule: Q01DX009 (ip), vehicle: saline
[14] = dose: 100.0 mg/kg/injection, schedule: Q04DX002 (ip), vehicle: Klucel (hydroxypropylcellulose) (HPC)
[15] = dose: 200.0 mg/kg/injection, schedule: Q04DX002 (ip), vehicle: Klucel (hydroxypropylcellulose) (HPC)
[16] = dose: 400.0 mg/kg/injection, schedule: Q04DX002 (ip), vehicle: Klucel (hydroxypropylcellulose) (HPC)
[17] = dose: 200.0 mg/kg/injection, schedule: Q04DX003 (ip), vehicle: saline with Tween-80
[18] = dose: 400.0 mg/kg/injection, schedule: Q04DX003 (ip), vehicle: saline with Tween-80
[19] = dose: 100.0 mg/kg/injection, schedule: Q01DX009 (ip), vehicle: Klucel (hydroxypropylcellulose) (HPC)
[20] = dose: 200.0 mg/kg/injection, schedule: Q01DX009 (ip), vehicle: Klucel (hydroxypropylcellulose) (HPC)
[21] = dose: 400.0 mg/kg/injection, schedule: Q01DX009 (ip), vehicle: Klucel (hydroxypropylcellulose) (HPC)

Measured: T/C

C=C1C(=O)O[C@H]2C[C@@H](C)[C@@H]3CC(=O)OC[C@@]3(C)CC12 (some centres undefined)
inactive: [1] 108 % of control | dose: 25.0 mg/kg/injection, schedule: Q04DX003 (ip), vehicle: saline with Tween-80 99 % of control | [2] 105 % of control | dose: 50.0 mg/kg/injection, schedule: Q04DX003 (ip), vehicle: saline with Tween-80 105 % of control | [3] 101 % of control | [4] 93 % of control and 103 % of control

ONC12CCCCC1(Cl)CCCC2 (centres undefined)
inactive: dose: 150.0 mg/kg/injection, schedule: Q01DX001 (ip), vehicle: saline 94 % of control

c1ccc(N=C2C3CCN(CC3)C2C(c2ccccc2)c2ccccc2)cc1 (centres undefined)
inactive: dose: 100.0 mg/kg/injection, schedule: Q04DX003 (ip), vehicle: Klucel (hydroxypropylcellulose) (HPC) 97 % of control | dose: 200.0 mg/kg/injection, schedule: Q04DX003 (ip), vehicle: Klucel (hydroxypropylcellulose) (HPC) 94 % of control | dose: 400.0 mg/kg/injection, schedule: Q04DX003 (ip), vehicle: Klucel (hydroxypropylcellulose) (HPC) 95 % of control

CN(C)C=Nc1ccc(C(=O)OCCN(C)C)cc1
inactive: [2] 115 % of control | [3] 97 % of control | [5] 106 % of control

S=C(Sc1ccc(Cl)cc1)Sc1ccc(Cl)cc1
inactive: [6] 93 % of control | [7] 93 % of control | [8] 90 % of control

Cc1cc(=O)c2cccc(-c3ccccc3)c2[nH]1
inactive: dose: 25.0 mg/kg/injection, schedule: Q01DX009 (ip), vehicle: acetone 95 % of control | dose: 25.0 mg/kg/injection, schedule: Q04DX003 (ip), vehicle: saline 101 % of control | dose: 50.0 mg/kg/injection, schedule: Q01DX009 (ip), vehicle: acetone 92 % of control | dose: 50.0 mg/kg/injection, schedule: Q04DX003 (ip), vehicle: saline 100 % of control | dose: 100.0 mg/kg/injection, schedule: Q01DX009 (ip), vehicle: acetone 92 % of control | [9] 100 % of control | [10] 96 % of control

COc1cc(Cl)ccc1NC(=O)Oc1ccc(C(=O)OCc2ccccc2)cc1
inactive: [11] 103 % of control | [12] 97 % of control | [13] 111 % of control

COC(=O)N/N=C/Cc1ccccc1
inactive: [1] 91 % of control | [2] 90 % of control | [3] 102 % of control

CC1(C)OCC(C2OC3OC(C)(C)OC3C2O)O1 (centres undefined)
inactive: [6] 97 % of control | [7] 100 % of control | [8] 100 % of control

O/N=C/CCCC/C=N/O
inactive: [2] 91 % of control | [3] 91 % of control | [5] 91 % of control

O=C(OCc1ccccc1CN1CCCCC1)c1cccc(Cl)c1
inactive: [14] 109 % of control | [15] 98 % of control | [16] 91 % of control

COc1ccc2c3c(c4cc(OC)c(OC)cc4c2c1)CN1CCC[C@H]1[C@@H]3O
inactive: dose: 0.57 mg/kg/injection, schedule: Q01DX Z (ip), vehicle: water 103 % of control | dose: 0.86 mg/kg/injection, schedule: Q01DX Z (ip), vehicle: water 106 % of control | dose: 1.3 mg/kg/injection, schedule: Q01DX Z (ip), vehicle: water 111 % of control | dose: 2.0 mg/kg/injection, schedule: Q01DX Z (ip), vehicle: water 119 % of control | dose: 9.0 mg/kg/injection, schedule: Q01DX015 (ip), vehicle: acid diluted with saline 118 % of control | dose: 12.0 mg/kg/injection, schedule: Q01DX015 (ip), vehicle: acid diluted with saline 112 % of control

CNCc1cccc2ccccc12
inactive: dose: 75.0 mg/kg/injection, schedule: Q01DX001 (ip), vehicle: carboxymethylcellulose (CMC) 101 % of control | dose: 150.0 mg/kg/injection, schedule: Q01DX001 (ip), vehicle: carboxymethylcellulose (CMC) 101 % of control | dose: 300.0 mg/kg/injection, schedule: Q01DX001 (ip), vehicle: carboxymethylcellulose (CMC) 107 % of control

O=[N+]([O-])c1ccc2c(c1[N+](=O)[O-])CCCC2
inactive: [3] 93 % of control | [4] 93 % of control | [5] 98 % of control | [17] 93 % of control | dose: 400.0 mg/kg/injection, schedule: Q01DX009 (ip), vehicle: saline with Tween-80 98 % of control | [18] 98 % of control

CSc1nc2cc(C)c(C)cc2[nH]1
inactive: [4] 107 % of control | [17] 94 % of control | [18] 94 % of control

O=C(O)c1cscc1-c1c2ccccc2cc2ccccc12
inactive: [4] 88 % of control | [17] 91 % of control | [18] 88 % of control

c1ccc(C(c2ccccc2)C2CSC2)cc1
inactive: dose: 50.0 mg/kg/injection, schedule: Q04DX002 (ip), vehicle: gum acacia 93 % of control | dose: 100.0 mg/kg/injection, schedule: Q04DX002 (ip), vehicle: gum acacia 100 % of control | dose: 200.0 mg/kg/injection, schedule: Q04DX002 (ip), vehicle: gum acacia 93 % of control

ClCCCN1CCN(CCCCl)CC1
inactive: dose: 6.25 mg/kg/injection, schedule: Q01DX009 (ip), vehicle: distilled water + alcohol 93 % of control | dose: 12.5 mg/kg/injection, schedule: Q01DX009 (ip), vehicle: distilled water + alcohol 95 % of control | dose: 25.0 mg/kg/injection, schedule: Q01DX009 (ip), vehicle: distilled water + alcohol 101 % of control | dose: 50.0 mg/kg/injection, schedule: Q01DX009 (ip), vehicle: distilled water + alcohol 113 % of control | dose: 100.0 mg/kg/injection, schedule: Q01DX009 (ip), vehicle: distilled water + alcohol 114 % of control

COC(C(C)C)[CH]1[Hg][O]C1=O (centres undefined)
inactive: dose: 0.5 mg/kg/injection, schedule: Q01DX001 (ip), vehicle: steriod suspending solution 103 % of control | dose: 1.0 mg/kg/injection, schedule: Q01DX001 (ip), vehicle: steriod suspending solution 108 % of control | dose: 2.0 mg/kg/injection, schedule: Q01DX001 (ip), vehicle: steriod suspending solution 111 % of control

Nc1ccc2c(c1)Cc1cc(NC(=O)C(F)(F)F)ccc1-2
inactive: [4] 100 % of control | [17] 96 % of control | [18] 92 % of control

O=C(Nc1ccc(F)c([N+](=O)[O-])c1)N1CCN(c2ccccc2)CC1
inactive: [19] 101 % of control | [20] 98 % of control | [21] 107 % of control

NC(=S)N/N=C1/CCc2ccccc21
inactive: dose: 100.0 mg/kg/injection, schedule: Q01DX001 (ip), vehicle: carboxymethylcellulose (CMC) 113 % of control

CCOC(=O)c1ccc(NCC(C)(C)[N+](=O)[O-])cc1
inactive: [11] 102 % of control | [9] 95 % of control | [12] 105 % of control | [10] 107 % of control | [13] 96 % of control and 105 % of control | dose: 400.0 mg/kg/injection, schedule: Q04DX003 (ip), vehicle: saline 91 % of control

COc1ccc(/C=C2\N=C(c3ccc([N+](=O)[O-])cc3)OC2=O)cc1OC
inactive: [19] 91 % of control | [20] 93 % of control | [21] 101 % of control

CCCCCCCCCCCC(=O)NC(=S)Nc1cccc(O)c1
inactive: [14] 104 % of control | [15] 87 % of control | [16] 104 % of control
